Measured values taken from patent publication EP4759816A1, “UREA-CONTAINING […] ß-LACTAMASE INHIBITOR, PREPARATION METHOD THEREFOR AND USE THEREOF” (priority 2023, dated 2025).
Read-outs that look alike come from different tables or passages of the source.

Key:
[1] = test system: P. aeruginosa ATCC 27853; test: MIC by broth microdilution, β-lactam antibiotic combined with β-lactamase inhibitor; assay type: cell-based; conditions: Pseudomonas aeruginosa, ATCC27853; P. aeruginosa ATCC 27853, expresses AmpC; MIC of the antibiotic, inhibitor fixed at 4 mg/L; read-out: Antibacterial Activity (MIC50)
Procedure: (§1) The minimum inhibitory concentration (MIC) of the Example compounds (at a concentration of 4 mg/L) in combination with β-lactam antibiotics (ceftazidime, cefepime, meropenem, imipenem, aztreonam) against bacterial strains was tested using the broth microdilution method recommended by the Clinical and Laboratory Standards Institute (CLSI, formerly NCCLs) [Methods for Dilution Antimicrobial Susceptibility Tests for Bacteria That Grow Aerobically; Approved Standard-tenth Edition M07-A10, 2015]. The specific test materials and procedures are as follows.
(§2) The standard strains used in this experiment were purchased ATCC strains. The clinical strains used were strains resistant to some or all marketed β-lactam antibiotics, isolated and identified by domestic public hospitals, and the types of β-lactamases they express were determined. Before the experiment, each bacterial strain was purified by streaking single colonies on an agar plate, and fresh bacterial cultures grown overnight at 37°C were appropriately diluted for the experiment.
(§3) CAMHB (Cation Adjusted Mueller-Hinton) medium, incubated at 35-37°C in air for 16-20 h.
(§4) CAMHB Formula: Acid-hydrolyzed casein (17.5 g/L), beef extract (3.0 g/L), soluble starch (1.5 g/L), calcium ions (20-25 mg/L), magnesium ions (10-12.5 mg/L).
(§5) Stock solutions at 4 times the working concentration were prepared in CAMHB broth for the combinations of antibiotics (ceftazidime, cefepime, meropenem, aztreonam) and Example compounds. The final concentrations of antibiotics in the stock solutions were 256, 128, 64, 32, 16, 8, 4, 2, 1, 0.5, 0.25, 0.125 mg/L, respectively. The final concentration of avibactam, relebactam, or Example compounds was 4 mg/L.
(§6) Several colonies were picked from an 18-24 h cultured agar plate and suspended directly in sterile physiological saline to prepare a bacterial suspension. The turbidity of the suspension was adjusted to 0.5 McFarland standard. The adjusted bacterial suspension was diluted with CAMHB broth to (4-8) × 10^5 CFU/mL and used immediately.
(§7) Test Group: 50 µL of the antibiotic (ceftazidime, cefepime, meropenem, imipenem, aztreonam) stock solution and 50 µL of the β-lactamase inhibitor (avibactam, relebactam, or Example compound) stock solution were added to wells 1 to 12 of a sterile 96-well polystyrene plate. Then, 100 µL of CAMHB containing the test bacterial suspension was added to each well, making a total volume of 200 µL per well. The final drug concentrations in the wells were 64, 32, 16, 8, 4, 2, 1, 0.5, 0.25, 0.125, 0.06, 0.03 mg/L, respectively. […]
(§8) The inoculated 96-well polystyrene plates were sealed and placed in an incubator at 35-37°C for 16-20 h before reading the results. […]

[2] = test system: E. Coli NCTC 13353; test: as above; assay type: cell-based; conditions: Escherichia coli, NCTC13353; E. Coli NCTC 13353, expresses CTX-M-15; MIC of the antibiotic, inhibitor fixed at 4 mg/L; read-out: Antibacterial Activity (MIC50)
Procedure: as §1, §2, §3, §4, §5, §6, §7, §8

[3] = test system: E. coli ATCC 25922; test: as above; assay type: cell-based; conditions: Escherichia coli, ATCC25922; E. coli ATCC 25922, β-lactamase expressed: -; MIC of the antibiotic, inhibitor fixed at 4 mg/L; read-out: Antibacterial Activity (MIC50)
Procedure: as §1, §2, §3, §4, §5, §6, §7, §8

[4] = test system: E. coli ATCC 35218; test: as above; assay type: cell-based; conditions: Escherichia coli, ATCC35218; E. coli ATCC 35218, expresses TEM-1; MIC of the antibiotic, inhibitor fixed at 4 mg/L; read-out: Antibacterial Activity (MIC50)
Procedure: as §1, §2, §3, §4, §5, §6, §7, §8

[5] = test system: K.Pneumoniae BAA-1705; test: as above; assay type: cell-based; conditions: Klebsiella pneumoniae, BAA1705; K.Pneumoniae BAA-1705, expresses KPC-2; MIC of the antibiotic, inhibitor fixed at 4 mg/L; read-out: Antibacterial Activity (MIC50)
Procedure: CAMHB (Cation Adjusted Mueller-Hinton) medium, incubated at 35-37°C in air for 16-20 h. […]

[6] = target: KPC-2 (Klebsiella pneumoniae, UniProt Q9F663); test: β-Lactamase inhibitory activity test, nitrocefin substrate; assay type: biochemical
Chain of KPC-2 (Q9F663 25-293 limits assumed): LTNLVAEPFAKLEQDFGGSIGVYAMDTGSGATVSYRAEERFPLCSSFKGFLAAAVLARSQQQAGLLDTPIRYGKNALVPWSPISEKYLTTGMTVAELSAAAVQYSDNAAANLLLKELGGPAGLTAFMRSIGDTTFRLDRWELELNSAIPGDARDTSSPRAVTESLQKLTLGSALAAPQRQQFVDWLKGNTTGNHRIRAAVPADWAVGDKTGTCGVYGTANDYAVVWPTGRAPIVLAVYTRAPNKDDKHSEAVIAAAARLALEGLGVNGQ
Procedure: (§9) The IC50 of β-lactamase inhibitors against β-lactamases was tested using nitrocefin as the substrate. The enzyme and serially diluted β-lactamase inhibitor were incubated in 50 mM phosphate buffer (containing 0.1 mg/mL bovine serum albumin) at 37°C for 10 minutes. The reaction was initiated by adding 100 µM nitrocefin, and the reaction temperature was set to 37°C. The absorbance at 490 nm was recorded every minute for a total of 1 hour. The initial reaction rate was calculated, and the IC50 was calculated using GraphPad Prism software. Table 4. Inhibitory activity (IC50, mg/L) of compounds against β-lactamases

[7] = target: OXA-23 (Acinetobacter baumannii, UniProt Q9L4P2); test: as above; assay type: biochemical
Chain of OXA-23 (Q9L4P2 18-273): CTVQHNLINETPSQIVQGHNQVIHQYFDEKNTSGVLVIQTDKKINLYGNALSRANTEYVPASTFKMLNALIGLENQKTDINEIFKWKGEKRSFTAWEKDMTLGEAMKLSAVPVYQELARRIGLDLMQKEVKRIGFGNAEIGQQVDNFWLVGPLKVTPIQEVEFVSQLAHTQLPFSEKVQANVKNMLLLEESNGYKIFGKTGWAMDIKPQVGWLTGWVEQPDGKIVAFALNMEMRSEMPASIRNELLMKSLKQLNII
Procedure: as §9

[8] = target: OXA-10 (Pseudomonas aeruginosa, UniProt P14489); test: as above; assay type: biochemical
Chain of OXA-10 (P14489 20-266): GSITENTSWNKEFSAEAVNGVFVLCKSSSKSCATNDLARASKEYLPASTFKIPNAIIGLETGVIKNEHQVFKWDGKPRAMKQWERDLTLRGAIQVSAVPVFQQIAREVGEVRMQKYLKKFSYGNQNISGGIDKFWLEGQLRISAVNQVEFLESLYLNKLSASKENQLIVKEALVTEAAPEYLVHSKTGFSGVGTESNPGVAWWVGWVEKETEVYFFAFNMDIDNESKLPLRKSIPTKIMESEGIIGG
Procedure: as §9

[9] = target: TEM-1 (Escherichia coli, UniProt P62593); test: as above; assay type: biochemical
Chain of TEM-1 (P62593 24-286 limits assumed): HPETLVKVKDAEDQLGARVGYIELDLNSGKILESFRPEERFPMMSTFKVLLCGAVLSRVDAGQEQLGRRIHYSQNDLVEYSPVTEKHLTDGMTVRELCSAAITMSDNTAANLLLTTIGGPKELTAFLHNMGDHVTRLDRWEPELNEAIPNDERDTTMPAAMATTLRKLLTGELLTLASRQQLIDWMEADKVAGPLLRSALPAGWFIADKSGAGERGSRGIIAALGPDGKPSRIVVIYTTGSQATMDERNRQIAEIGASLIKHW
Procedure: as §9

[10] = TEM-1, enzyme family A, 100 µM nitrocefin, 37°C, 10 minutes preincubation, read-out: Inhibitory activity (IC50)

| MIC50 [1] [µg/mL] | MIC50 [2] [µg/mL] | MIC50 [3] [µg/mL] | MIC50 [4] [µg/mL] | MIC50 [5] [µg/mL] | SMILES | IC50 [6] [µM] | IC50 [7] [µM] | IC50 [8] [µM] | IC50 [9, 10] [µM] | IC50 [9] [µM] |
| --- | --- | --- | --- | --- | --- | --- | --- | --- | --- | --- |
| 1 to 10 | > 10 | 0.1 to 1 | 0.1 to 1 | > 10 | CC(C)(O/N=C(\C(=O)N[C@@H]1C(=O)N2C(C(=O)[O-])=C(C[n+]3ccccc3)CS[C@H]12)c1csc(N)n1)C(=O)O [Ceftazidime] | – | – | – | – | – |
| – | – | – | – | – | O=C1N2Cc3c(ccn3S(=O)(=O)c3ccccc3)C(C2)N1OS(=O)(=O)O (centres unmarked) [Example 1 Compound] | < 1 | < 1 | < 1 | < 1 | – |
| – | – | – | – | – | CS(=O)(=O)n1ccc2c1CN1CC2N(OS(=O)(=O)O)C1=O (centres unmarked) [Example 2 Compound] | < 1 | < 1 | < 1 | < 1 | – |
| – | – | – | – | – | CS(=O)(=O)n1ccc2c1CN1C[C@@H]2N(OS(=O)(=O)O)C1=O [Example 3 Compound] | < 1 | < 1 | < 1 | < 1 | – |
| – | – | – | – | – | CCS(=O)(=O)n1ccc2c1CN1C[C@@H]2N(OS(=O)(=O)O)C1=O [Example 4 Compound] | < 1 | 1 to 10 | – | – | < 1 |
| – | – | – | – | – | O=C1N2Cc3c(ccn3S(=O)(=O)c3cccnc3)[C@H](C2)N1OS(=O)(=O)O [Example 10 Compound] | < 1 | < 1 | – | – | < 1 |
| – | – | – | – | – | Cn1cc(S(=O)(=O)n2ccc3c2CN2C[C@@H]3N(OS(=O)(=O)O)C2=O)cn1 [Example 11 Compound] | < 1 | 1 to 10 | – | – | < 1 |
| – | – | – | – | – | CS(=O)(=O)n1ccc2c1C(C(N)=O)N1CC2N(OS(=O)(=O)O)C1=O (centres unmarked) [Example 14 Compound] | < 1 | 10 to 100 | – | – | < 1 |
| – | – | – | – | – | NC(=O)C1c2c(ccn2S(=O)(=O)C2CC2)C2CN1C(=O)N2OS(=O)(=O)O (centres unmarked) [Example 15 Compound] | > 100 | > 100 | – | – | > 100 |
